Earlier results as cited in publication PMC8155022 (Scientific Reports, 2021).

Columns and labels:
[1] = tested on: activated CCR6+ T cells from human peripheral blood; parameters: method as in PMID 27905482; details: cited from earlier work
[2] = tested on: patients with moderate to severe plaque psoriasis; parameters: method as in earlier work; details: 4 weeks of treatment, cited from earlier work

COc1nc2ccc([C@@](O)(c3ccc(C)nc3C)c3cnnn3C)cc2c(Cl)c1Cc1ccc(C(F)(F)F)cc1 [JNJ-54271074]
IL-10 production [1]: slightly increased
IL-17A production [1]: greatly reducing

CCS(=O)(=O)c1ccc(CNC(=O)c2cnc3c(c2)CN(C[C@H]2CC[C@H](C(F)(F)F)CC2)[C@H]3C(C)C)nc1 [VTP-43742]
reduction of IL-17A and IL-17F in patient serum [2]: up to 75%
efficacy in patients with moderate to severe plaque psoriasis ([2]; Phase 2a): showed efficacy
